Experimental data: patent US20210386705A1, “APPLICATION OF CHIGLITAZAR AND RELATED COMPOUNDS THEREOF” (SHENZHEN CHIPSCREEN BIOSCIENCES CO., LTD., priority 2018, published 2021)
“And” between values parts separate entries of the source, which are not always exact repeats. Equal values may be shown once.

Legend:
[1] = test system: monocytic cell line THP-1; test: MCP-1-induced chemotaxis of THP-1 cells (Transwell); format: cell-based, human; conditions: MCP-1 10 ng/mL, compound 3 μmol/L
Excerpt: In an in vitro model, migration of the monocytic cell line THP-1 induced by a certain concentration of chemokines (such as monocyte chemotactic protein 1, MCP-1), and accordingly such in vivo process was mimicked. Transwell technology, according to the manufacturer's instructions from Corning Inc., is considered that Traswell is a kind of a polycarbonate membrane filter as well as a permeable holder. The polycarbonate membrane divides a culture chamber into upper and lower ones, where the components of the culture medium in the lower chamber can affect the growth, differentiation and movement of the cells in upper chamber. Finally, the cell migration ability can be reflected by staining and counting the cells in the lower chamber.
When cultured to the log phase stage, THP-1 cells were resuspended, adjusted the concentration, and seeded in 24-well plates, followed by being pretreated with the culture media containing the compound to be tested (sodium chiglitazar) or the reference compound GFT505, pioglitazone, or PPARγ single agonist rosiglitazone (all purchased from Selleck) for 24 hours. Transwells were used according to the manufacturer's instructions. The culture media containing chemokine MCP-1 were added to the lower chamber (i.e., the bottom of the 24-well plates), and the cell suspension was added to the upper chamber and cultured for 4 hours. Later, the cells cultured on the “ceiling” surface of the polycarbonate membrane were fixed and stained with crystal violet solution (FIG. 6), and then the number of cells in the lower chamber was counted (Table 3).

[2] = test system: CCl4-induced liver fibrosis; test: Mouse model of carbon tetrachloride induced liver fibrosis; format: in vivo, BALB/c mice; conditions: 40, 20 and 10 mg/kg intragastrically, from the fourth week to the 7th week
Procedure: BALB/c mice were injected intraperitoneally with 25% CCl4 (4 mL/kg body weight) twice a week, which can cause liver damage and chronic liver fibrosis in 3 weeks. The model animals were administered for 6 weeks continuously, and the non-model control group was administered the solvent control olive oil for the same period. Model animals were randomly divided into groups from the third week. The control group was administered solvent (0.2% sodium methylcellulose) intragastrically from the fourth week, and the sodium chiglitazar at high, medium and low dose groups were administered 40, 20, and 10 mg/kg body weight of the active ingredient sodium chiglitazar intragastrically, respectively (Table 4), until the end of the experiment in the 7th week. […]
The liver tissue sections were stained with Picrosirius Red for morphological observation (FIG. 9), and measured by using a semi-automatic digital image analysis system and the measurement software (OsteoMetrics, Inc.). The pathologist single-blindly tested and hand-drew the entire sections, and then measured the fibrosis area on the entire sections in straight lines. The software automatically calculated the total area of the measurement. […]

[3] = 24 hours pretreatment, 4 hours migration

`O=C(c1ccc(F)cc1)c1ccccc1N[C@@H](Cc1ccc(OCCn2c3ccccc3c3ccccc32)cc1)C(=O)[O-].[Na+]` [sodium chiglitazar] was tested, and the “Cell concentration in lower chamber, Mean value” [1, 3] was 10012 cells/ml, the “Cell concentration in lower chamber, single replicates” value [1, 3] was 10630 cells/ml and 9760 cells/ml and 9646 cells/ml and the “Inhibition of migration activity of THP-1 induced by monocyte chemokine (in words)” value ([1]; Table 3 and FIG. 6) was “significantly inhibited”. For the same molecule, the Migration rate ([1]; solvent control + MCP-1 = 100) was 33.12%, the “Inflammatory activity of liver tissues (Metavir score, H&E staining)” value ([2]; FIGS. 7-8) was “partially inhibit” and the “Fibrosis degree of liver tissues (fibrosis area %, Picrosirius Red)” value ([2]; FIGS. 9-10) was “partially inhibit”.
